Tested on: TFEB
Test: TFEB nuclear translocation assay, HeLa wt cells
Assay type: cell-based
Conditions: 2 hrs compound treatment, Table 1 does not say HeLa wt or TRPML1 KO
Experimental: For the TFEB nuclear translocation assay, HeLa wt or HeLa TRPML1 KO cells were plated at 2700 cells/well into black-walled, 384-well Cell carrier Ultra tissue culture treated plates in complete media and incubated overnight. The next day, cells are treated for 2 hrs with compounds and incubated at 37° C. Cells were then fixed for 30 minutes at room temperature in 4% final PFA and washed five times with 90 μL PBS. PBS is aspirated from the wells and the cells are blocked with 7.5 μL blocking buffer (1:1 PBS/Odyssey block buffer containing 0.1% triton x-100 and 1% goat serum). After 30-60 minutes of block, 7.5 μL of primary anti-TFEB (rabbit) antibody is added for a final dilution of 1:200 antibody in 15 μL blocking buffer. Plates are incubated overnight at 4° C. The following day, plates are washed again into PBS, 90 μL with 5 washes, all PBS is aspirated from the wells and the cells are incubated for 1 hr in 1:1000 goat-anti rabbit Alexa 488 secondary antibody, also containing 10 μg/mL Hoechst 33342. After the 1 hr room temperature incubation, plates are washed a final time into PBS, sealed with foil and imaged with an automated epifluorescence microscopy (PerkinElmer Operetta CLS). Four different fields were imaged per well using ×20 magnification for DAPI and FITC filter sets. Images were quantified using PerkinElmer Harmony software, briefly: apply flatfield correction (basic/advanced) for input images. Use the Find Nuclei building block with channel set at Hoechst to find the nuclei. Use the Find cytoplasm building block with channel set to Alexa 488 to find the cytoplasm. Use select cell region with Channel set at Alexa 488 and region of interest as Nuclei and define outer border at 0 μm and inner at 45 μm to cover complete nuclei. Use select cell region with Channel set at Alexa 488 and region of interest as ring region and define outer border at −5 μm and inner at 0 μm to define a ring around the nucleus. Use the find calculate intensity parameter to calculate intensity of the nuclear region and the ring region. Define results as Number of nuclei and ratio of A/B where A is Intensity of Nuclei and B is intensity of the ring region.
The compound numbers correspond to the compound numbers above in Tables A or B. Compounds having an activity designated as “++++” provided an AC50 of ≤2.00 μM; compounds having an activity designated as “+++” provided an AC50 of 2.01-8.00 μM; compounds having an activity designated as “++” provided an AC50 of 8.01-9.99 μM; and compounds having an activity designated as “+” provided an AC50 of ≥10.00 μM.

## CC(c1cccc(F)c1N1CCCCC1)S(=O)(=O)c1ccc(S(=N)(=O)C(F)F)cc1 (single isomer, unassigned) [Compound A-939, (difluoromethyl)(4-((1-(3-fluoro-2-(piperidin-1-yl)phenyl)ethyl)sulfonyl)phenyl)(imino)-l6-sulfanone]
  AC50: 2.01 to 8 µM

## CC(c1cccnc1N1CCC2(CC1)COC(C)(C)C2)S(=O)(=O)c1ccc(S(=O)(=O)N(C)C)cc1 (stereo not shown) [Compound A-775, 4-[1-(2-{3,3-dimethyl-2-oxa-8-azaspiro[4.5]decan-8-yl}pyridin-3-yl)ethanesulfonyl]-N,N-dimethylbenzene-1-sulfonamide]
Homo sapiens, HeLa, 2 h
  AC50: 8.01 to 9.99 µM

## C[C@H](c1cccc(F)c1N1CCCCC1)S(=O)(=O)c1ccc(S(=N)(=O)N(C)C)cc1 (single isomer, unassigned) [Compound A-895]
  AC50: ≥ 10 µM

## CS(=O)(=O)c1ccc(S(=O)(=O)Nc2ccccc2N2CCC(c3c(F)cccc3F)CC2)cc1 [Compound A-124, N-{2-[4-(2,6-difluorophenyl)piperidin-1-yl]phenyl}-4-methanesulfonylbenzene-1-sulfonamide]
Homo sapiens, HeLa, 2 h
  AC50: ≤ 2 µM

## CN(C)S(=O)(=O)c1ccc(S(=O)(=O)Nc2cccc(F)c2N2CCC(CN3CCC(F)(F)CC3)CC2)cc1 [Compound A-789, N4-(2-{4-[(4,4-difluoropiperidin-1-yl)methyl]piperidin-1-yl}-3-fluorophenyl)-N1,N1-dimethylbenzene-1,4-disulfonamide]
Homo sapiens, HeLa, 2 h
  AC50: ≤ 2 µM

## CN(C)S(=O)(=O)c1ccc(S(=O)(=O)Nc2ccccc2N2CCC(c3ccc(-c4nnn[nH]4)cc3)CC2)cc1 [Compound A-273, N1,N1-dimethyl-N4-(2-{4-[4-(1H-1,2,3,4-tetrazol-5-yl)phenyl]piperidin-1-yl}phenyl)benzene-1,4-disulfonamide]
Homo sapiens, HeLa, 2 h
  AC50: ≥ 10 µM

## CC(=O)Nc1cccc(NS(=O)(=O)c2ccc(S(=O)(=O)N(C)C)cc2)c1N1CCCCC1 [Compound A-827, N-{3-[4-(dimethylsulfamoyl)benzenesulfonamido]-2-(piperidin-1-yl)phenyl}acetamide]
Homo sapiens, HeLa, 2 h
  AC50: ≥ 10 µM

## C[C@@H]1CN(CC2CCN(c3c(F)cccc3NS(=O)(=O)c3ccc(S(=N)(=O)N(C)C)cc3)CC2)C[C@H](C)O1 (single isomer, unassigned) [Compound A-811, Rel-N-(2-(4-((2,6-dimethylmorpholino)methyl)piperidin-1-yl)-3-fluorophenyl)-4-(N,N-dimethylsulfamidimidoyl)benzenesulfonamide]
  AC50: ≤ 2 µM

## CN(C)S(=O)(=O)c1ccc(S(=O)(=O)Nc2ccccc2N2CCC(c3cccc(F)c3C(=O)O)CC2)cc1 [Compound A-358, 2-(1-{2-[4-(dimethylsulfamoyl)benzenesulfonamido]phenyl}piperidin-4-yl)-6-fluorobenzoic acid]
Homo sapiens, HeLa, 2 h
  AC50: ≥ 10 µM

## Cc1nc(N2CCN(c3ccc(Cl)cc3F)CC2=O)cn1S(=O)(=O)c1ccc(S(=O)(=O)N(C)C)cc1 [Compound A-89, 4-((4-(4-(4-chloro-2-fluorophenyl)-2-oxopiperazin-1-yl)-2-methyl-1H-imidazol-1-yl)sulfonyl)-N,N-dimethylbenzenesulfonamide]
Homo sapiens, HeLa, 2 h
  AC50: ≤ 2 µM

## CC1(C)CC2(CCN(c3ccccc3NS(=O)(=O)C3(c4ccccc4)CC3)CC2)CO1 [Compound A-717, N-(2-{3,3-dimethyl-2-oxa-8-azaspiro[4.5]decan-8-yl}phenyl)-1-phenylcyclopropane-1-sulfonamide]
Homo sapiens, HeLa, 2 h
  AC50: 2.01 to 8 µM

## COC(=O)C(C)(C)c1ccc(S(=O)(=O)Nc2ccccc2N2CCC3(CC2)COC(C)(C)C3)cc1 [Compound A-710, methyl 2-{4-[(2-{3,3-dimethyl-2-oxa-8-azaspiro[4.5]decan-8-yl}phenyl)sulfamoyl]phenyl}-2-methylpropanoate]
Homo sapiens, HeLa, 2 h
  AC50: 8.01 to 9.99 µM

## C[C@H]1COC[C@H](C)N1CC1CCN(c2c(F)cccc2NS(=O)(=O)c2ccc(S(=O)(=O)N(C)C)cc2)CC1 (racemic) [Compound A-763, N4-(2-{4-[(3,5-dimethylmorpholin-4-yl)methyl]piperidin-1-yl}-3-fluorophenyl)-N1,N1-dimethylbenzene-1,4-disulfonamide]
Homo sapiens, HeLa, 2 h
  AC50: ≤ 2 µM

## O=S(=O)(Nc1ccccc1N1CCOCC1)c1ccc2c(c1)CCC2 [Compound A-760, N-[2-(morpholin-4-yl)phenyl]-2,3-dihydro-1H-indene-5-sulfonamide]
Homo sapiens, HeLa, 2 h
  AC50: 2.01 to 8 µM

## CN1C(=O)C2(CCN(c3ccccc3NS(=O)(=O)c3ccc(S(=O)(=O)N(C)C)cc3)CC2)c2cccnc21 [Compound A-282, N1,N1-dimethyl-N4-(2-{1′-methyl-2′-oxo-1′,2′-dihydrospiro[piperidine-4,3′-pyrrolo[2,3-b]pyridin]-1-yl}phenyl)benzene-1,4-disulfonamide]
Homo sapiens, HeLa, 2 h
  AC50: 2.01 to 8 µM

## COCC1(C)C2CCC1CN(c1ccccc1NS(=O)(=O)c1ccc(S(=O)(=O)N(C)C)cc1)C2 (stereo not shown) [Compound A-829, N4-{2-[8-(methoxymethyl)-8-methyl-3-azabicyclo[3.2.1]octan-3-yl]phenyl}-N1,N1-dimethylbenzene-1,4-disulfonamide]
Homo sapiens, HeLa, 2 h
  AC50: ≤ 2 µM

## CS(=O)(=O)c1ccc(S(=O)(=O)Nc2cc(Cl)ccc2N2CCOCC2)cc1 [Compound A-299, N-[5-chloro-2-(morpholin-4-yl)phenyl]-4-methanesulfonylbenzene-1-sulfonamide]
Homo sapiens, HeLa, 2 h
  AC50: ≥ 10 µM

## CC(=O)NC1(c2ccc(Cl)cc2F)CCN(c2ccccc2NS(=O)(=O)c2ccc(S(=O)(=O)N(C)C)cc2)CC1 [Compound A-153, N-[4-(4-chloro-2-fluorophenyl)-1-{2-[4-(dimethylsulfamoyl)benzenesulfonamido]phenyl}piperidin-4-yl]acetamide]
Homo sapiens, HeLa, 2 h
  AC50: 2.01 to 8 µM

## Cc1ccc(S(=O)(=O)N2Cc3cccc(N4CCOCC4)c3C2)cc1 [Compound A-820, 2-(4-methylbenzenesulfonyl)-4-(morpholin-4-yl)-2,3-dihydro-1H-isoindole]
Homo sapiens, HeLa, 2 h
  AC50: ≥ 10 µM

## CC(C)S(=N)(=O)c1ccc(S(=O)(=O)[C@H](C)c2cccc(F)c2N2CCCCC2)cc1 (single isomer, unassigned) [Compound A-923]
Homo sapiens, HeLa, 2 h
  AC50: ≥ 10 µM

## O=S(=O)(Nc1ccccc1N1CCC(c2ccc(Cl)cc2F)CC1)c1ccc(C(F)(F)F)c(F)c1 [Compound A-158, N-{2-[4-(4-chloro-2-fluorophenyl)piperidin-1-yl]phenyl}-3-fluoro-4-(trifluoromethyl)benzene-1-sulfonamide]
Homo sapiens, HeLa, 2 h
  AC50: ≤ 2 µM

## CN(C)S(=O)(=O)c1ccc(S(=O)(=O)Nc2ccccc2N2CCC3(CCCO3)CC2)cc1 [Compound A-584, N1,N1-dimethyl-N4-(2-{1-oxa-8-azaspiro[4.5]decan-8-yl}phenyl)benzene-1,4-disulfonamide]
Homo sapiens, HeLa, 2 h
  AC50: ≤ 2 µM

## COC1(C(=O)N2CCN(c3ccccc3NS(=O)(=O)c3ccc(S(=O)(=O)N(C)C)cc3)CC2)CCCC1 [Compound A-444, N4-{2-[4-(1-methoxycyclopentanecarbonyl)piperazin-1-yl]phenyl}-N1,N1-dimethylbenzene-1,4-disulfonamide]
Homo sapiens, HeLa, 2 h
  AC50: ≤ 2 µM

## CCS(=O)(=O)c1ccc(S(=O)(=O)Nc2ccccc2N2CCN(C(=O)C(C)(C)C)CC2)cc1 [Compound A-351, N-{2-[4-(2,2-dimethylpropanoyl)piperazin-1-yl]phenyl}-4-(ethanesulfonyl)benzene-1-sulfonamide]
Homo sapiens, HeLa, 2 h
  AC50: ≥ 10 µM

## CN(C)S(=O)(=O)c1ccc(S(=O)(=O)N(C)c2ccccc2N2CCC(c3ccc(Cl)cc3F)CC2)cc1 [Compound A-104, N1-{2-[4-(4-chloro-2-fluorophenyl)piperidin-1-yl]phenyl}-N1,N4,N4-trimethylbenzene-1,4-disulfonamide]
Homo sapiens, HeLa, 2 h
  AC50: ≤ 2 µM

From patent US20230104936A1, “TRPML MODULATORS” (Casma Therapeutics, Inc., priority 2019, published 2023)
